Patent publication EP4786466A1, “QUINAZOLINE DERIVATIVE, SALT THEREOF, AND PHARMACEUTICAL COMPOSITION COMPRISING SAME AS ACTIVE INGREDIENT” (Korea Research Institute of Chemical Technology, priority 2023, dated 2025)
Where two headings read alike, the source gives them in different places.

Columns and labels:
[1] = biological target: T1, Recombinant GST-TAG-MASTL (Homo sapiens, UniProt Q96GX5); assay: HTRF-based kinase assay (HTRF KinEASE assay kit); format: biochemical; conditions: for activity at 1 µM: read-out: MASTL activity (%) HTRF (1 µM); for activity at 10 µM: footnote b: concentration 10 µM
T1 construct: GST; purchased Thermo Fisher Scientific
T1 sequence (Q96GX5 1-879): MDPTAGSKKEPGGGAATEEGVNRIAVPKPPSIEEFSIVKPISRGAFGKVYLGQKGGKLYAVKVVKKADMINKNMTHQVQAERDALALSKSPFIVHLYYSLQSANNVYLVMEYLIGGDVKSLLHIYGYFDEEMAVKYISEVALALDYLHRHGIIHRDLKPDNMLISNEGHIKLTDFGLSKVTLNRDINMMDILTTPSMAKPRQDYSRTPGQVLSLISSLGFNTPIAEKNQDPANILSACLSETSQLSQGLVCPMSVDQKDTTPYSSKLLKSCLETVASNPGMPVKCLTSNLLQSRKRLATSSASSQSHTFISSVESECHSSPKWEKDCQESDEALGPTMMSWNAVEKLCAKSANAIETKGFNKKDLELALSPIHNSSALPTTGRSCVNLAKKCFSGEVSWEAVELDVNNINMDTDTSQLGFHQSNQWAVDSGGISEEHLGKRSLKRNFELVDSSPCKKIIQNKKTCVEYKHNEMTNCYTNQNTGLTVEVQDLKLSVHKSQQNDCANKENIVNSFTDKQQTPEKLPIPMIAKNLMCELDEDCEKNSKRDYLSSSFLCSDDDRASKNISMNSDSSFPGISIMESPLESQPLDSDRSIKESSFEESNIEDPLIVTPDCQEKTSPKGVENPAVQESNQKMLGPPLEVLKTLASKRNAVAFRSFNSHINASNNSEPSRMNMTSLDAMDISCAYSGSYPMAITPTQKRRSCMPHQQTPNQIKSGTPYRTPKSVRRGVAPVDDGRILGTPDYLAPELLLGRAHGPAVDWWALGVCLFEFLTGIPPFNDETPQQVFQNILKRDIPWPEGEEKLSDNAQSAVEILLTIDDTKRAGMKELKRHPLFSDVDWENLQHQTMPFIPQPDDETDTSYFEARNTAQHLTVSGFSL
From the text: Recombinant GST-TAG-MASTL (Thermo Fisher Scientific, MA, USA) was used for HTRF-based kinase assays. The HTRF KinEASE assay kit (CisBio, MA, USA) was used according to the manufacturer's instructions.

pENSA = pENSA level by immunofluorescence (described method: in vitro kinase analysis with GST-tag-MASTL and His-tag-ENSA); format: cell-based; conditions: for pENSA (%) Immunofluor ecense (1 µM): compound 1 µM; for IC50: read-out: IC50(nM) pENSA
Summary of the method: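 In vitro kinase reaction using recombinant GST-tagged MASTL with His-tagged ENSA as substrate; phosphorylated ENSA (pENSA) serves as read-out of MASTL activity. Cell lines named: MCF7 breast cancer and MCF10A.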

in vitro = conditions: human
Method: (§1) MCF7 breast cancer cell lines and MCF10A normal breast cancer cell lines were treated with serial dilutions of the compounds of the present invention ranging from 1 µM to 15.63 nM for 72 hours. Cell viability was measured by the WST-8 assay (Cyto XTM cell viability assay kit; LPS solution, Daejeon, Korea) according to the manufacturer's instructions.

[2] = test system: MCF7 breast cancer cell lines; assay: Cell viability analysis, WST-8 assay, MCF7; conditions: Homo sapiens, MCF7, 72 h; for viability at 1 µM: read-out: Cell viability (%) WST-8, MCF7 (1 µM), compound 1 µM, 72 hours; for viability at 1.25 µM: read-out: Cell viability (%) WST-8, MCF7, footnote a: concentration 1.25 µM, 72 hours
Method: as §1

[3] = test system: MCF10A normal breast cell lines; assay: Cell viability analysis, WST-8 assay, MCF10A; conditions: Homo sapiens, MCF-10A, 72 h
Method: as §1

[4] = read-out: IC50 Cell viability (MCF7)
[5] = read-out: IC50 Cell viability (MCF10A)
[6] = HTRF, read-out: IC50(nM) MASTL activity
[7] = read-out: MASTL activity (%) HTRF
[8] = read-out: IC50(nM) Cell viability (MCF7)
[9] = read-out: IC50(nM) Cell viability (MCF10A)

Compound: NCCNC(=O)c1ccc(Nc2nc(Nc3cc(C4CC4)[nH]n3)c3ccccc3n2)cc1 [4aa, M-(2-aminoethyl)-4-((4-((5-cyclopropyl-1G-pyrazol-3-yl)amino)quinazolin-2-yl)amino)benzamide.trifluoroacetic acid]
- IC50 [1]: 720 nM
- activity at 1 µM [1]: 26.8%
- pENSA (%) Immunofluor ecense (1 µM) (pENSA): 142.5%
- viability at 1 µM (in vitro; mcf10a cells): 111%
- viability at 1 µM [2]: 87.6%
- IC50 [2, 4]: 4500 nM
- IC50 [3, 5]: 9000 nM

Compound: NCCCNC(=O)c1ccc(Nc2nc(Nc3cc(C4CC4)[nH]n3)c3ccccc3n2)cc1 [4ab, M-(3-aminopropyl)-4-((4-((5-cyclopropyl-1G-pyrazol-3-yl)amino)quinazolin-2-yl)amino)benzamide.trifluoroacetic acid]
- IC50 [1]: 1100 nM
- activity at 1 µM [1]: 36.2%
- pENSA (%) Immunofluor ecense (1 µM) (pENSA): 188%
- viability at 1 µM (in vitro; mcf10a cells): 101%
- viability at 1 µM [2]: 101%
- IC50 [2, 4]: 12400 nM
- IC50 [3, 5]: 5800 nM

Compound: CNCc1ccc(-c2nc(Nc3cc(C4CC4)[nH]n3)c3ccccc3n2)cc1 [9d, N-(5-cyclopropyl-1H-pyrazol-3-yl)-2-(4-((methylamino)methyl)phenyl)quinazolin-4-amine hydrogen chloride]
- IC50 [1, 6]: 119 nM
- activity at 10 µM [1, 7]: 20.4%
- IC50 (pENSA): 577 nM
- viability at 1.25 µM (in vitro): 11.1%
- viability at 1.25 µM [2]: 36.2%
- IC50 [2, 8]: 539 nM
- IC50 [3, 9]: 413 nM

Compound: c1ccc2c(Nc3cc(C4CC4)[nH]n3)nc(N3CC4CCC(C3)N4)nc2c1 [20' (B), 2-(3,8-diazabicyclo[3.2.1]octan-3-yl)-M-(5-cyclopropyl-1G-pyrazol-3-yl)quinazolin-4-amine trifluoroacetic acid]
- IC50 [1]: 106 nM
- activity at 1 µM [1]: 6.6%
- pENSA (%) Immunofluor ecense (1 µM) (pENSA): 21%
- IC50 (pENSA): 755 nM
- viability at 1 µM (in vitro; mcf10a cells): 34.9%
- viability at 1 µM [2]: 32%
- IC50 [2, 8]: 365 nM
- IC50 [3, 9]: 596 nM

Compound: c1ccc(Nc2nc(Nc3cc(C4CC4)[nH]n3)c3ccccc3n2)cc1 [compound 4a, M^4-(5-cyclopropyl-1G-pyrazol-3-yl)-M^2-phenylquinazoline-2,4-diamine]
- IC50 [1, 6]: 987 nM
- activity at 1.25 µM ([1]; footnote a: concentration 1.25 µM, read-out: MASTL activity (%) HTRF): 54.9%
- pENSA (%) Immunofluor ecense (1 µM) (pENSA): 3.7%
- IC50 (pENSA): 501 nM
- viability at 1.25 µM (in vitro; mcf10a cells): 34%
- viability at 1.25 µM [2]: 8.1%
- IC50 [2, 8]: 649 nM
- IC50 [3, 9]: 881 nM

Compound: Nc1nc(Nc2cc(C3CC3)[nH]n2)c2ccccc2n1 [compound 4ca, N^4-(5-cyclopropyl-1H-pyrazol-3-yl)quinazoline-2,4-diamine]
- IC50 ([1]; HTRF, unit µM, read-out: IC50 MASTL activity): 1800 nM
- activity at 10 µM [1, 7]: 37.4%
- viability at 1.25 µM (in vitro): 99.1%
- viability at 1.25 µM [2]: 43%
- IC50 [2, 4]: 1700 nM
- IC50 [3, 5]: 2800 nM

Compound: c1ccc(CNc2nc(Nc3cc(C4CC4)[nH]n3)c3ccccc3n2)cc1 [compound 4cc, N^2-benzyl-N^4-(5-cyclopropyl-1H-pyrazol-3-yl)quinazoline-2,4-diamine]
- IC50 [1, 6]: 298 nM
- activity at 10 µM [1, 7]: 22%
- IC50 (pENSA): 363 nM
- viability at 1.25 µM (in vitro): 98.5%
- viability at 1.25 µM [2]: 65.5%
- IC50 [2, 4]: 1100 nM
- IC50 [3, 5]: 2800 nM

Compound: COc1ccc(CNc2nc(Nc3cc(C4CC4)[nH]n3)c3ccccc3n2)cc1 [compound 4cd, N^4-(5-cyclopropyl-1H-pyrazol-3-yl)-N^2-(4-methoxybenzyl)quinazoline-2,4-diamine]
- IC50 [1, 6]: 476 nM
- activity at 10 µM [1, 7]: 20.3%
- IC50 (pENSA): 543 nM
- viability at 1.25 µM (in vitro): 83.9%
- viability at 1.25 µM [2]: 83.8%
- IC50 [2, 4]: 2600 nM
- IC50 [3, 5]: 2700 nM

Compound: c1ccc(CCNc2nc(Nc3cc(C4CC4)[nH]n3)c3ccccc3n2)cc1 [compound 4ce, N^4-(5-cyclopropyl-1H-pyrazol-3-yl)-N^2-phenethylquinazoline-2,4-diamine]
- IC50 [1, 6]: 692 nM
- activity at 10 µM [1, 7]: 14.1%
- IC50 (pENSA): 491 nM
- viability at 1.25 µM (in vitro): 100%
- viability at 1.25 µM [2]: 72.8%
- IC50 [2, 4]: 1500 nM
- IC50 [3, 5]: 3700 nM

Compound: CN(C)S(=O)(=O)c1ccc(Nc2nc(Nc3ccccc3)nc3ccccc23)cc1 [compound 25d, M,M-dimethyl-4-((2-(phenylamino)quinazolin-4-yl)amino)benzenesulfonamide]
- activity at 1 µM [1]: 107%
- pENSA (%) Immunofluor ecense (1 µM) (pENSA): 80.6%
- viability at 1 µM (in vitro; mcf10a cells): 106%
- viability at 1 µM [2]: 90.8%

Compound: Cc1cc(Nc2nc(N3CC4CC3CN4C(=O)C(C)C)nc3ccccc23)n[nH]1 (stereo not shown) [compound 27c, 2-methyl-1-(5-(4-((5-methyl-1G-pyrazol-3-yl)amino)quinazolin-2-yl)-2,5-diazabicyclo[2.2.1]heptan-2-yl)propan-1-one]
- activity at 1 µM ([1]; compound 1 µM): 102%
- pENSA (%) Immunofluor ecense (1 µM) (pENSA): 90.5%
- viability at 1 µM (in vitro; mcf10a cells): 46.7%
- viability at 1 µM [2]: 103%

Compound: Cc1cc(Nc2nc(N3CC4CC3CN4C(=O)c3ccccc3)nc3ccccc23)n[nH]1 (stereo not shown) [compound 27d, (5-(4-((5-methyl-1G-pyrazol-3-yl)amino)quinazolin-2-yl)-2,5-diazabicyclo[2.2.1]heptan-2-yl)(phenyl)methanone]
- activity at 1 µM ([1]; compound 1 µM): 121%
- pENSA (%) Immunofluor ecense (1 µM) (pENSA): 60.6%
- viability at 1 µM (in vitro; mcf10a cells): 48.3%
- viability at 1 µM [2]: 94.9%

Compound: Cc1cc(Nc2nc(N3CC4CC3CN4CC(C)C)nc3ccccc23)n[nH]1 (stereo not shown) [compound 27e, 2-(5-isobutyl-2,5-diazabicyclo[2.2.1]heptan-2-yl)-M-(5-methyl-1G-pyrazol-3-yl)quinazolin-4-amine]
- activity at 1 µM ([1]; compound 1 µM): 67.4%
- pENSA (%) Immunofluor ecense (1 µM) (pENSA): 90.1%
- viability at 1 µM (in vitro; mcf10a cells): 74.8%
- viability at 1 µM [2]: 88.3%

Compound: Cc1cc(Nc2nc(N3CC4CC3CN4Cc3ccccc3)nc3ccccc23)n[nH]1 (stereo not shown) [compound 27f, 2-(5-benzyl-2,5-diazabicyclo[2.2.1]heptan-2-yl)-M-(5-methyl-1G-pyrazol-3-yl)quinazolin-4-amine]
- activity at 1 µM ([1]; compound 1 µM): 78.4%
- pENSA (%) Immunofluor ecense (1 µM) (pENSA): 77.4%
- viability at 1 µM (in vitro; mcf10a cells): 113%
- viability at 1 µM [2]: 109%

Compound: CC(C)C(=O)N1CC2CC1CN2c1nc(Nc2cn[nH]c2)c2ccccc2n1 (stereo not shown) [compound 28c, 1-(5-(4-((1G-pyrazol-4-yl)amino)quinazolin-2-yl)-2,5-diazabicyclo[2.2.1]heptan-2-yl)-2-methylpropan-1-one]
- activity at 1 µM ([1]; compound 1 µM): 117%
- pENSA (%) Immunofluor ecense (1 µM) (pENSA): 80.0%
- viability at 1 µM (in vitro; mcf10a cells): 85.3%
- viability at 1 µM [2]: 105%

Compound: O=C(c1ccccc1)N1CC2CC1CN2c1nc(Nc2cn[nH]c2)c2ccccc2n1 (stereo not shown) [compound 28d, (5-(4-((1G-pyrazol-4-yl)amino)quinazolin-2-yl)-2,5-diazabicyclo[2.2.1]heptan-2-yl)(phenyl)methanone]
- activity at 1 µM ([1]; compound 1 µM): 119%
- pENSA (%) Immunofluor ecense (1 µM) (pENSA): 66.9%
- viability at 1 µM (in vitro; mcf10a cells): 49.7%
- viability at 1 µM [2]: 93.1%

Compound: CC(C)CN1CC2CC1CN2c1nc(Nc2cn[nH]c2)c2ccccc2n1 (stereo not shown) [compound 28e, 2-(5-isobutyl-2,5-diazabicyclo[2.2.1]heptan-2-yl)-M-(1G-pyrazol-4-yl)quinazolin-4-amine]
- activity at 1 µM ([1]; compound 1 µM): 103%
- pENSA (%) Immunofluor ecense (1 µM) (pENSA): 95.8%
- viability at 1 µM (in vitro; mcf10a cells): 105%
- viability at 1 µM [2]: 97.3%

Compound: c1ccc(CN2CC3CC2CN3c2nc(Nc3cn[nH]c3)c3ccccc3n2)cc1 (stereo not shown) [compound 28f, 2-(5-benzyl-2,5-diazabicyclo[2.2.1]heptan-2-yl)-M-(1G-pyrazol-4-yl)quinazolin-4-amine]
- activity at 1 µM ([1]; compound 1 µM): 118%
- pENSA (%) Immunofluor ecense (1 µM) (pENSA): 85.1%
- viability at 1 µM (in vitro; mcf10a cells): 101%
- viability at 1 µM [2]: 110%
